Measured values published in US7250435B2, “Acylsemicarbazides as cyclin dependent kinase inhibitors useful as anti-cancer and anti-proliferative agents” (Bristol-Myers Squibb Pharma Company, priority 1999, dated 2007).

Row | Structure (SMILES) | melting point [°C]
1 | COc1ccc(-c2[nH]nc3c2C(=O)c2c(NC(=O)NN(C)C)cccc2-3)cc1 [Example LXIV, 3-(4-methoxyphenyl)-5-(dimethylaminocarbamoyl)aminoindeno[1,2-c]pyrazol-4-one] | > 300
2 | COc1ccc(-c2[nH]nc3c2C(=O)c2c(NC(=O)NNC(=O)c4ccc(O)c(O)c4)cccc2-3)cc1 [Example CLXI, 3-(4-methoxyphenyl)-5-(2-(3,4-dihydroxybenzoyl)hydrazinecarboxamido)indeno[1,2-c]pyrazol-4-one] | > 300
3 | CN1CCN(CC(=O)Nc2cccc3c2C(=O)c2c-3n[nH]c2-c2ccc(N3CCOCC3)cc2)CC1 [Example LXXXII, 3-(4-(4-morpholinyl)phenyl)-5-((4-methyl-1-piperazinyl)acetamido)indeno[1,2-c]pyrazol-4-one] | 258
4 | COc1ccc(-c2[nH]nc3c2C(=O)c2c(NC(=O)NNC(=O)c4ccccc4N)cccc2-3)cc1 [Example CLXV, 3-(4-methoxyphenyl)-5-(2-(2-aminobenzoyl)hydrazinecarboxamido)indeno[1,2-c]pyrazol-4-one] | 257

Continued, values first:

Row | melting point [°C] | Structure (SMILES)
5 | > 300 | COc1ccc(-c2[nH]nc3c2C(=O)c2c(NC(=O)CCNc4ccncc4)cccc2-3)cc1 [Example XXXV, 3-(4-methoxyphenyl)-5-(4-pyridinylaminomethylacetamido)indeno[1,2-c]pyrazol-4-one]
6 | 269 | CC(=O)Nc1cccc2c1C(=O)c1c-2n[nH]c1-c1cccs1 [Example LXXXIX, 3-(2-thienyl)-5-(acetamido)indeno[1,2-c]pyrazol-4-one]
7 | > 250 | CC(=O)Nc1cccc2c1C(=O)c1c-2n[nH]c1C(C)C [Example LXXXVI, 3-(i-propyl)-5-(acetamido)indeno[1,2-c]pyrazol-4-one]
8 | > 300 | COc1ccc(-c2[nH]nc3c2C(=O)c2c(NC(=O)NCc4ccc(N)cc4)cccc2-3)cc1 [Example XLIV, 3-(4-methoxyphenyl)-5-(4-aminobenzylcarbamoyl)aminoindeno[1,2-c]pyrazol-4-one]
9 | > 250 | CC(=O)Nc1cccc2c1C(=O)c1c-2n[nH]c1C(C)(C)C [Example LXXXVIII, 3-(t-butyl)-5-(acetamido)indeno[1,2-c]pyrazol-4-one]
